Measured values: ChEMBL document CHEMBL4680202, “Development, synthesis and biological investigation of a novel class of potent PC-PLC inhibitors” (Eur J Med Chem, 2020)

Each molecule was assayed on Bacillus cereus (assay: Inhibition of Bacillus cereus PC-PLC assessed as residual activity at 10 uM using phosphatidylcholine as substrate measured after 1 hr by horseradish peroxidase/alkaline phosphatase/choline oxidase-coupled amplex red reagent based fluorescence assay relative to control).

Row | Activity [%] | SMILES
1 | 42.7 | CN1CCN(c2ccc(NCc3ccccc3F)cc2)CC1
2 | 23.7 | Cc1cccc(CNc2ccc(N3CCOCC3)c(C(=O)O)c2)c1
3 | 28.7 | O=C(O)c1cc(NCc2ccc(Br)cc2)ccc1N1CCOCC1
4 | 40 | O=C(O)c1cc(NCc2ccccc2O)ccc1N1CCOCC1
5 | 12.7 | CN1CCN(c2ccc(NCc3cccc(O)c3)cc2)CC1
6 | 58.9 | COC(=O)c1cc(NCc2ccc(OC)cc2)ccc1N1CCOCC1
7 | 19.5 | CN1CCN(c2ccc(NCc3cccc(Cl)c3)cc2)CC1
8 | 73.1 | COC(=O)c1cc(NCc2ccccc2Cl)ccc1N1CCOCC1
9 | 0 | Oc1ccccc1CNc1ccc(N2CCOCC2)cc1
10 | 18.4 | CC(C)(C)OC(=O)N1CCN(c2ccc(NCc3cccc(O)c3)cc2)CC1
11 | 48.9 | COC(=O)c1cc(NCc2ccc(F)cc2)ccc1N1CCOCC1
12 | 26 | Fc1cccc(CNc2ccc(N3CCNCC3)cc2)c1
13 | 20 | CN1CCN(c2ccc(NCc3ccccc3Br)cc2)CC1
14 | 9.9 | COc1ccccc1CNc1ccc(N2CCCCC2)cc1
15 | 40.9 | Cc1ccccc1CNc1ccc(N2CCN(C)CC2)cc1
16 | 19.9 | COc1ccccc1CNc1ccc(N2CCN(C(=O)OC(C)(C)C)CC2)cc1
17 | 22.6 | Clc1ccccc1CNc1ccc(N2CCCCC2)cc1
18 | 28.9 | Cc1cc(C)c(CNc2ccc(N3CCOCC3)cc2)c(C)c1
19 | 52.8 | COC(=O)c1cc(NCc2cccc(O)c2)ccc1N1CCOCC1
20 | 26.5 | CC(C)(C)OC(=O)N1CCN(c2ccc(NCc3ccccc3O)cc2)CC1
21 | 32.5 | COc1ccccc1CNc1ccc(N2CCOCC2)c(C(=O)O)c1
22 | 43.8 | O=C(O)c1cc(NCc2ccc(O)cc2)ccc1N1CCOCC1
23 | 49.3 | FC(F)(F)c1ccccc1CNc1ccc(N2CCCCC2)cc1
24 | 32.2 | Cc1ccccc1CNc1ccc(N2CCN(C(=O)OC(C)(C)C)CC2)cc1
25 | 49.5 | O=C(O)c1cc(NCc2cccc(F)c2)ccc1N1CCOCC1

Row | Activity [%] | SMILES
26 | 13.4 | CN1CCN(c2ccc(NCc3ccccc3O)cc2)CC1
27 | 32.3 | COc1ccc(CNc2ccc(N3CCOCC3)c(C(=O)O)c2)cc1
28 | 5.6 | COc1cccc(CNc2ccc(N3CCOCC3)cc2)c1
29 | 26.3 | c1ccc(CNc2ccc(N3CCNCC3)cc2)cc1
30 | 8.3 | Cc1cccc(CNc2ccc(N3CCOCC3)cc2)c1
31 | 14.7 | Cc1ccccc1CNc1ccc(N2CCCCC2)cc1
32 | 45.5 | O=C(O)c1cc(NCc2ccc(C(F)(F)F)cc2)ccc1N1CCOCC1
33 | 43.7 | COC(=O)c1cc(NCc2ccccc2OC)ccc1N1CCOCC1
34 | 6.6 | Fc1ccc(CNc2ccc(N3CCCCC3)cc2)cc1
35 | 14.8 | Oc1ccccc1CNc1ccc(N2CCCCC2)cc1
36 | 64.6 | COC(=O)c1cc(NCc2cccc(OC)c2)ccc1N1CCOCC1
37 | 26.7 | O=C(O)c1cc(NCc2ccc(Cl)cc2)ccc1N1CCOCC1
38 | 1.2 | COc1ccccc1CNc1ccc(N2CCOCC2)cc1
39 | 57.7 | COC(=O)c1cc(NCc2ccccc2)ccc1N1CCOCC1
40 | 11 | Oc1ccc(CNc2ccc(N3CCCCC3)cc2)cc1
41 | 32.5 | O=C(O)c1cc(NCc2ccccc2)ccc1N1CCOCC1
42 | 35 | Cc1ccccc1CNc1ccc(N2CCOCC2)c(C(=O)O)c1
43 | 16.6 | CN1CCN(c2ccc(NCc3ccc(Cl)cc3)cc2)CC1
44 | 0 | c1ccc(CNc2ccc(N3CCOCC3)cc2)cc1
45 | 54 | COC(=O)c1cc(NCc2cccc(C)c2)ccc1N1CCOCC1
46 | 7.9 | Clc1ccccc1CNc1ccc(N2CCOCC2)cc1
47 | 8.1 | c1ccc(CNc2ccc(N3CCCCC3)cc2)cc1
48 | 21.1 | Fc1ccc(CNc2ccc(N3CCNCC3)cc2)cc1
49 | 18.1 | Brc1ccc(CNc2ccc(N3CCOCC3)cc2)cc1
50 | 7.6 | Oc1cccc(CNc2ccc(N3CCCCC3)cc2)c1

Row | Activity [%] | SMILES
51 | 60.9 | COC(=O)c1cc(NCc2cccc(Br)c2)ccc1N1CCOCC1
52 | 29.4 | CC(C)(C)OC(=O)N1CCN(c2ccc(NCc3ccccc3F)cc2)CC1
53 | 33.5 | CC(C)(C)OC(=O)N1CCN(c2ccc(NCc3cccc(F)c3)cc2)CC1
54 | 28.1 | COc1cccc(CNc2ccc(N3CCOCC3)c(C(=O)O)c2)c1
55 | 56.8 | COC(=O)c1cc(NCc2ccccc2F)ccc1N1CCOCC1
56 | 27.7 | COc1ccccc1CNc1ccc(N2CCNCC2)cc1
57 | 6.5 | Oc1ccc(CNc2ccc(N3CCOCC3)cc2)cc1
58 | 12.9 | Clc1ccc(CNc2ccc(N3CCOCC3)cc2)cc1
59 | 44.2 | CN1CCN(c2ccc(NCc3cccc(F)c3)cc2)CC1
60 | 6.1 | Fc1cccc(CNc2ccc(N3CCOCC3)cc2)c1
61 | 3.4 | Oc1cccc(CNc2ccc(N3CCOCC3)cc2)c1
62 | 44.6 | O=C(O)c1cc(NCc2cccc(C(F)(F)F)c2)ccc1N1CCOCC1
63 | 27.6 | FC(F)(F)c1ccc(CNc2ccc(N3CCOCC3)cc2)cc1
64 | 30.3 | O=C(O)c1cc(NCc2ccc(F)cc2)ccc1N1CCOCC1
65 | 2.2 | Cc1ccccc1CNc1ccc(N2CCOCC2)cc1
66 | 68.3 | CC(C)(C)OC(=O)N1CCN(c2ccc(NCc3ccc(F)cc3)cc2)CC1
67 | 64.5 | COC(=O)c1cc(NCc2cccc(F)c2)ccc1N1CCOCC1
68 | 10.7 | Fc1cccc(CNc2ccc(N3CCCCC3)cc2)c1
69 | 24.1 | Fc1ccccc1CNc1ccc(N2CCNCC2)cc1
70 | 51.3 | Oc1ccc(CNc2ccc(N3CCNCC3)cc2)cc1
71 | 54.3 | COC(=O)c1cc(NCc2ccc(C)cc2)ccc1N1CCOCC1
72 | 41.3 | CC(C)(C)OC(=O)N1CCN(c2ccc(NCc3ccccc3C(F)(F)F)cc2)CC1
73 | 130 | COC(=O)c1cc(NCc2cccc(Oc3ccccc3)c2)ccc1N1CCOCC1
74 | 28 | Brc1ccccc1CNc1ccc(N2CCCCC2)cc1
75 | 30.9 | Oc1cccc(CNc2ccc(N3CCNCC3)cc2)c1

Row | Activity [%] | SMILES
76 | 65.6 | COC(=O)c1cc(NCc2cccc(Cl)c2)ccc1N1CCOCC1
77 | 11.6 | Brc1cccc(CNc2ccc(N3CCOCC3)cc2)c1
78 | 23 | Clc1ccc(CNc2ccc(N3CCCCC3)cc2)cc1
79 | 31 | Clc1ccccc1CNc1ccc(N2CCNCC2)cc1
80 | 48.3 | COC(=O)c1cc(NCc2ccc(O)cc2)ccc1N1CCOCC1
81 | 78.6 | COC(=O)c1cc(NCc2ccc(C(F)(F)F)cc2)ccc1N1CCOCC1
82 | 34.1 | O=C(O)c1cc(NCc2ccccc2C(F)(F)F)ccc1N1CCOCC1
83 | 39.3 | c1ccc(Oc2cccc(CNc3ccc(N4CCOCC4)cc3)c2)cc1
84 | 29.3 | COc1ccccc1CNc1ccc(N2CCN(C)CC2)cc1
85 | 38.6 | COC(=O)c1cc(NCc2ccccc2O)ccc1N1CCOCC1
86 | 41.6 | O=C(O)c1cc(NCc2cccc(O)c2)ccc1N1CCOCC1
87 | 47.5 | O=C(O)c1cc(NCc2cccc(Oc3ccccc3)c2)ccc1N1CCOCC1
88 | 27.4 | Clc1cccc(CNc2ccc(N3CCNCC3)cc2)c1
89 | 53.3 | CC(C)(C)OC(=O)N1CCN(c2ccc(NCc3ccc(Cl)cc3)cc2)CC1
90 | 58.4 | COC(=O)c1cc(NCc2ccccc2C)ccc1N1CCOCC1
91 | 25.4 | CN1CCN(c2ccc(NCc3ccccc3C(F)(F)F)cc2)CC1
92 | 37.9 | Oc1ccccc1CNc1ccc(N2CCNCC2)cc1
93 | 31.3 | Clc1ccc(CNc2ccc(N3CCNCC3)cc2)cc1
94 | 3.2 | COc1ccc(CNc2ccc(N3CCOCC3)cc2)cc1
95 | 45.3 | Cc1cc(C)c(CNc2ccc(N3CCOCC3)c(C(=O)O)c2)c(C)c1
96 | 42.3 | CC(C)(C)OC(=O)N1CCN(c2ccc(NCc3ccccc3)cc2)CC1
97 | 14.1 | Brc1ccccc1CNc1ccc(N2CCOCC2)cc1
98 | 43.2 | CC(C)(C)OC(=O)N1CCN(c2ccc(NCc3ccccc3Cl)cc2)CC1
99 | 23.9 | CC(C)(C)OC(=O)N1CCN(c2ccc(NCc3ccc(O)cc3)cc2)CC1
100 | 96.8 | COC(=O)c1cc(NCc2c(C)cc(C)cc2C)ccc1N1CCOCC1

Row | Activity [%] | SMILES
101 | 9 | Fc1ccccc1CNc1ccc(N2CCCCC2)cc1
102 | 5.4 | Cc1ccc(CNc2ccc(N3CCOCC3)cc2)cc1
103 | 40.1 | O=C(O)c1cc(NCc2ccc(-c3ccccc3)cc2)ccc1N1CCOCC1
104 | 100 | COC(=O)c1cc(NCc2ccc(-c3ccccc3)cc2)ccc1N1CCOCC1
105 | 35.6 | CC(C)(C)OC(=O)N1CCN(c2ccc(NCc3ccccc3Br)cc2)CC1
106 | 33.4 | Cc1ccc(CNc2ccc(N3CCOCC3)c(C(=O)O)c2)cc1
107 | 11.5 | O=C(O)c1cc(NCc2ccccc2Cl)ccc1N1CCOCC1
108 | 1.8 | Fc1ccc(CNc2ccc(N3CCOCC3)cc2)cc1
109 | 40.4 | O=C(O)c1cc(NCc2ccccc2Br)ccc1N1CCOCC1
110 | 77.3 | COC(=O)c1cc(NCc2ccc(Br)cc2)ccc1N1CCOCC1
111 | 29.7 | CN1CCN(c2ccc(NCc3ccccc3Cl)cc2)CC1
112 | 64.1 | COC(=O)c1cc(NCc2cccc(C(F)(F)F)c2)ccc1N1CCOCC1
113 | 26.8 | Brc1ccccc1CNc1ccc(N2CCNCC2)cc1
114 | 30.4 | FC(F)(F)c1ccccc1CNc1ccc(N2CCNCC2)cc1
115 | 36.8 | CC(C)(C)OC(=O)N1CCN(c2ccc(NCc3cccc(Cl)c3)cc2)CC1
116 | 29.9 | O=C(O)c1cc(NCc2ccccc2F)ccc1N1CCOCC1
117 | 23.4 | FC(F)(F)c1cccc(CNc2ccc(N3CCOCC3)cc2)c1
118 | 9.1 | Clc1cccc(CNc2ccc(N3CCOCC3)cc2)c1
119 | 31.5 | CN1CCN(c2ccc(NCc3ccccc3)cc2)CC1
120 | 9.4 | CN1CCN(c2ccc(NCc3ccc(O)cc3)cc2)CC1
121 | 23.9 | CN1CCN(c2ccc(NCc3ccc(F)cc3)cc2)CC1
122 | 87.5 | COC(=O)c1cc(NCc2ccc(Cl)cc2)ccc1N1CCOCC1
123 | 83 | COC(=O)c1cc(NCc2ccccc2C(F)(F)F)ccc1N1CCOCC1
124 | 29.3 | Cc1ccccc1CNc1ccc(N2CCNCC2)cc1
125 | 24.7 | Clc1cccc(CNc2ccc(N3CCCCC3)cc2)c1

Row | SMILES | Activity [%]
126 | O=C(O)c1cc(NCc2cccc(Br)c2)ccc1N1CCOCC1 | 20.4
